Reference: patent publication US10077237B2 (Sanofi, priority 2013, dated 2018)
Where “and” joins values, the source holds several entries; their conditions need not be identical. Identical values can stand only once. Counter-ions that a name gives are not always drawn.

Biological target: T1, recombinant human AMPK complex, containing α2β1γ2 (Homo sapiens, UniProt P54646+Q9Y478)
T1 construct: hsAMPKα2-552-His, hsAMPKβ1-2-270 and hsAMPKγ-2-569 respectively; hsAMPKβ1-2-270; hsAMPKγ-2-569; His (C); made in house; host or cells: Spodoptera frugiperda Sf21 (baculovirus)
Test: AMPK in vitro activation assay (HTRF)
Type: biochemical
Details: for EC50: HTRF, recombinant human α2β1γ2 AMPK, 200 μM ATP, biotinylated ACC-CREBp peptide, repeat determinations on separate lines; for Emax: potentiation of AMPK activity as percent over the basal signal (without compound)
Method: The recombinant human AMPK complex, containing α2β1γ2 was obtained from baculovirus expression system and generated by cotransfection in Spodoptera frugiperda 21 (Sf21). […] were produced in serum free medium (SF900 II, Invitrogen) for 82 hours after a triple infection at a multiplicity of infection (M.O.I.) of 0.05, 0.06 and 0.045 for hsAMPKα2-552-His, hsAMPKβ1-2-270 and hsAMPKγ-2-569 respectively. Cells were harvested by centrifugation at 1,000×g for 10 minutes at 4° C. and stored at −80° C. The insect cell pellet from 8 liters of culture was resuspended and homogenized in 580 ml of lysis buffer (20 mM Hepes pH 7.5, 150 mM NaCl, 10 mM imidazole, 50 mM NaF, 10% Glycerol and supplemented with EDTA free proteases inhibitor cocktail Roche). The AMPK complex was partially purified using an affinity chromatography under a Ni-NTA Agarose column equilibrated in the lysis buffer and eluted with a gradient (0 to 400 mM) of Imidazol.
A homogeneous time-resolved fluorescence (HTRF) assay was used (Li et al, Anal. Biochem. (2003) 321, 151-156) to identify compounds with stimulating activity for the recombinant human AMPK. Enzyme reaction was performed into a 96-well microtiter plate. First, 20 μL of test compounds in 0.5% DMSO were dispensed followed by 10 μL of protein in 50 mM HEPES buffer at pH 7.0, 100 mM NaCl, 5 mM MgCl2, 0.01% BSA, 0.8 mM DTT. After, 30 min incubation at room temperature, the reaction was initiated by the addition of 10 μL of a solution containing 200 μM of ATP as donor substrate, 2 μM or 0.08 μM of biotinylated ACC-CREBp peptide (PolyPeptide) as acceptor. Plates were then incubated 45 min at 37° C. The reaction was terminated by the addition of 40 μl detection mixture containing Eu^3+ cryptate-conjugated anti-pS^133-CREB antibody and streptavidine-XL665 (CisBio). Plates were further incubated for 2 h30 at room temperature. The fluorescence signal was measured using an Envision multireader (Perkin Elmer). The non-specific signal was obtained without substrates. Potentiation of AMPK activity was expressed as a percent over the basal signal (without compound) from which an EC50 value was determined.
The EC50 of a graded dose response curve represents the concentration of a compound where 50% of its maximal effect is observed.

T1 sequence (P54646 2-552): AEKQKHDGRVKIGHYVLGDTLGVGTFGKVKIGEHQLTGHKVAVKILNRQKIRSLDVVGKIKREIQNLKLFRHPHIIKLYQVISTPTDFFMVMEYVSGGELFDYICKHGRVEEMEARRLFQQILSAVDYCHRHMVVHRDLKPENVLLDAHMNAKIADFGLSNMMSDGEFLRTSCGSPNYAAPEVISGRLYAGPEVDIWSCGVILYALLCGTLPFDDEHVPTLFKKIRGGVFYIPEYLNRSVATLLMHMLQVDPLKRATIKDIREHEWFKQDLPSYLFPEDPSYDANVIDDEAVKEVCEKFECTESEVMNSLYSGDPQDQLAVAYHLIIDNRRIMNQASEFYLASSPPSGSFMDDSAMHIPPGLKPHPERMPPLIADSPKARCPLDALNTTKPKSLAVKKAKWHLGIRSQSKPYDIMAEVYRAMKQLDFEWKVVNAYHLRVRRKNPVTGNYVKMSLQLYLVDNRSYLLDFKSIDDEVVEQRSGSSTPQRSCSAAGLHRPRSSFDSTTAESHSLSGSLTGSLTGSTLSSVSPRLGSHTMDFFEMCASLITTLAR
T1 sequence (Q9Y478 2-270): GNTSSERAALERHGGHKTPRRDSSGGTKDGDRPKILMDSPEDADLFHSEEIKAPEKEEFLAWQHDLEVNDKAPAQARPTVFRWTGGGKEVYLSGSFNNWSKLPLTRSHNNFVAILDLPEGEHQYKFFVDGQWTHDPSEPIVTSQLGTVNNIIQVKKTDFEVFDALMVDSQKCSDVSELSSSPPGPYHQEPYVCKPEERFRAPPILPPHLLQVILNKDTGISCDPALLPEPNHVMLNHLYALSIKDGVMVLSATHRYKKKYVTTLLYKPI
T1 sequence (Q9UGJ0 2-569 partner limits assumed): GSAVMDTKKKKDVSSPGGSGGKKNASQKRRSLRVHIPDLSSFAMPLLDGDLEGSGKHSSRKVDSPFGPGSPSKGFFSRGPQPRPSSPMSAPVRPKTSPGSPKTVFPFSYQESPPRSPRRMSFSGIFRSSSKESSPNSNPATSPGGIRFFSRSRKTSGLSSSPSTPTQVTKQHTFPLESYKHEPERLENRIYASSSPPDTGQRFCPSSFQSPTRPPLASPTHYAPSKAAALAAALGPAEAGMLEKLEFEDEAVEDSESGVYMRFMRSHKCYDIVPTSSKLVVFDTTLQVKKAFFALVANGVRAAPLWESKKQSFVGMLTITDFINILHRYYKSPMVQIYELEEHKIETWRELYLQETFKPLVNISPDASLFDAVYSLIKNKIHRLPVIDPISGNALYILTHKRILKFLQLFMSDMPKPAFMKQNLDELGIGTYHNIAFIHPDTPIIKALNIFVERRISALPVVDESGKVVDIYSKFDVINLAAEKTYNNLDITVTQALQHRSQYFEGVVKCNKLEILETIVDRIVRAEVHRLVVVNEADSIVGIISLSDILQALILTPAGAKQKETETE

| SMILES | EC50 | Emax |
| --- | --- | --- |
| O=C1Nc2cc(Cl)c(-c3ccc(N4CCOCC4)cc3)cc2C1=C(O)c1cc(C2CCCCC2)no1 [Compound 86, 6-chloro-3-[(3-cyclohexylisoxazol-5-yl)hydroxy-methylene]-5-(4-morpholinophenyl)indolin-2-one] | 61 nM | 155% |
| O=C1Nc2cc(Cl)c(-c3ccc(N4CCOCC4)cc3)cc2C1=C(O)c1cccnc1 [Compound 25, 6-Chloro-3-[1-hydroxy-1-pyridin-3-yl-methylidene]-5-(4-morpholin-4-yl-phenyl)-1,3-dihydro-indol-2-one] | 320 nM | 146% |
| Cc1cc(C(O)=C2C(=O)Nc3cc(Cl)c(-c4ccc(C5(CO)CC5)cc4)cc32)on1 [Compound 6, 6-Chloro-5-[4-(1-hydroxymethyl-cyclopropyl)-phenyl]-3-[1-hydroxy-1-(3-methyl-isoxazol-5-yl)-methylidene]-1,3-dihydro-indol-2-one] | 7 nM | 186% |
| O=C1Nc2cc(Cl)c(-c3ccc(N4CCOCC4)cc3)cc2C1=C(O)c1cccc(C(F)(F)F)c1 [Compound 40, 6-Chloro-3-[1-hydroxy-1-(3-trifluoromethyl-phenyl)-methylidene]-5-(4-morpholin-4-yl-phenyl)-1,3-dihydro-indol-2-one] | 720 nM | 121% |
| O=C1Nc2cc(Cl)c(-c3ccc4ccccc4c3)cc2C1=C(O)c1cccc(F)c1 [Compound 11, 6-Chloro-3-[1-(3-fluoro-phenyl)-1-hydroxy-methylidene]-5-naphthalen-2-yl-1,3-dihydro-indol-2-one] | 4000 nM | 95% |
| Cc1cc(C(O)=C2C(=O)Nc3cc(Cl)c(-c4ccc(C5CCN(C)CC5)cc4)cc32)on1 [Compound 78, 6-Chloro-3-[1-hydroxy-1-(3-methyl-isoxazol-5-yl)methylidene]-5-[4-(1-methyl-piperidin-4-yl)phenyl]-1,3-dihydro-indol-2-one, hydrochloride] | 7 nM | 141% |
| CCc1ccc(-c2cc3c(cc2Cl)NC(=O)C3=C(O)c2cc(C)no2)cc1 [Compound 64, 6-Chloro-5-(4-ethyl-phenyl)-3-[1-hydroxy-1-(3-methyl-isoxazol-5-yl)-methylidene]-1,3-dihydro-indol-2-one] | 1630 nM | 141% |
| COc1cccc(-c2ccc(-c3cc4c(cc3Cl)NC(=O)C4=C(O)c3cc(OCCN4CCOCC4)no3)cc2)c1O [Compound 90, 6-chloro-5-[4-(2-hydroxy-3-methoxy-phenyl)phenyl]-3-[hydroxy-[3-(2-morpholinoethoxy)isoxazol-5-yl]methylene]indolin-2-one] | 0.1 nM and 0.2 nM |  |
| COc1cccc(-c2ccc(-c3cc4c(cc3Cl)NC(=O)C4=C(O)c3cc(C)ns3)cc2)c1O [Compound 42, 6-Chloro-5-(2′-hydroxy-3′-methoxy-biphenyl-4-yl)-3-[1-hydroxy-1-(3-methyl-isothiazol-5-yl)-methylidene]-1,3-dihydro-indol-2-one] | 27 nM | 132% |
| Cc1cc(C(O)=C2C(=O)Nc3cc(Cl)c(-c4ccc(OCCN5CCOCC5)cc4)cc32)on1 [Compound 82, 6-chloro-3-[hydroxy-(3-methylisoxazol-5-yl)methylene]-5-[4-(2-morpholinoethoxy)phenyl]indolin-2-one hydrochloride] | 280 nM | 130% |
| COc1ccc(C(O)=C2C(=O)Nc3cc(Cl)c(-c4ccc(N5CCOCC5)cc4)cc32)cc1F [Compound 77, 6-Chloro-3-[1-(3-fluoro-4-methoxy-phenyl)-1-hydroxy-methylidene]-5-(4-morpholin-4-yl-phenyl)-1,3-dihydro-indol-2-one] | 0.5 nM | 128% |
| COc1ccc(-c2cc3c(cc2Cl)NC(=O)C3=C(O)c2cc(C)no2)cc1 [Compound 20, 6-Chloro-3-[1-hydroxy-1-(3-methyl-isoxazol-5-yl)-methylidene]-5-(4-methoxy-phenyl)-1,3-dihydro-indol-2-one] | 410 nM | 223% |
| Cc1nnc(C(O)=C2C(=O)Nc3cc(Cl)c(-c4ccc(N5CCOCC5)cc4)cc32)o1 [Compound 16, 6-Chloro-3-[1-hydroxy-1-(5-methyl-[1,3,4]oxadiazol-2-yl)-methylidene]-5-(4-morpholin-4-yl-phenyl)-1,3-dihydro-indol-2-one] | 9 nM | 268% |
| Cc1cc(C(O)=C2C(=O)Nc3cc(Cl)c(-c4ccc(OC(F)(F)F)cc4)cc32)on1 [Compound 58, 6-Chloro-3-[1-hydroxy-1-(3-methyl-isoxazol-5-yl)-methylidene]-5-(4-trifluoromethoxy-phenyl)-1,3-dihydro-indol-2-one] | 1400 nM | 212% |

Next, values leading:

| EC50 | Emax | SMILES |
| --- | --- | --- |
| 2 nM | 229% | O=C1Nc2cc(Cl)c(-c3ccc(C4(CO)CC4)cc3)cc2C1=C(O)c1ccc(F)cc1F [Compound 141, 6-chloro-3-[(2,4-difluorophenyl)hydroxy-methylene]-5-[4-[1-(hydroxymethyl)cyclopropyl]phenyl]indolin-2-one] |
| 6 nM | 239% | O=C1Nc2cc(Cl)c(-c3ccc(C4(CO)CC4)cc3)cc2C1=C(O)c1cncc(F)c1 [Compound 142, 6-chloro-3-[(5-fluoro-3-pyridyl)hydroxy-methylene]-5-[4-[1-(hydroxymethyl)cyclopropyl]phenyl]indolin-2-one] |
| 26 nM | 309% | COc1cc(C(O)=C2C(=O)Nc3cc(Cl)c(-c4ccc(OCc5cncs5)cc4)cc32)on1 [Compound 136, 6-chloro-3-[hydroxy-(3-methoxyisoxazol-5-yl)methylene]-5-[4-(thiazol-5-ylmethoxy)phenyl]indolin-2-one] |
| 6 nM | 131% | COc1cc(C(O)=C2C(=O)Nc3cc(Cl)c(-c4ccc(C5(OC)CCC5)cc4)cc32)on1 [Compound 110, 6-chloro-3-[hydroxy-(3-methoxyisoxazol-5-yl)methylene]-5-[4-(1-methoxycyclobutyl)phenyl]indolin-2-one] |
| 7 nM | 234% | COc1cc(C(O)=C2C(=O)Nc3cc(Cl)c(-c4ccc(N(C)C5CC5)cc4)cc32)on1 [Compound 153, 6-chloro-5-[4-[cyclopropyl(methyl)amino]phenyl]-3-[hydroxy-(3-methoxyisoxazol-5-yl)methylene]indolin-2-one] |
| 0.9 nM | 210% | O=C1Nc2cc(Cl)c(-c3ccc(C4(CO)CC4)cc3)cc2C1=C(O)c1cc(F)cc(F)c1 [Compound 144, 6-chloro-3-[(3,5-difluorophenyl)hydroxy-methylene]-5-[4-[1-(hydroxymethyl)cyclopropyl]phenyl]indolin-2-one] |
| 0.2 nM | 230% | COc1ccc(C(O)=C2C(=O)Nc3cc(F)c(-c4ccc(C5(CO)CC5)cc4)cc32)cc1F [Compound 125, 6-fluoro-3-[(3-fluoro-4-methoxy-phenyl)hydroxy-methylene]-5-[4-[1-(hydroxymethyl)cyclopropyl]phenyl]indolin-2-one] |
| 0.1 nM | 172% | O=C1Nc2cc(Cl)c(-c3ccc(C4(CO)CC4)cc3)cc2C1=C(O)c1cc2ncccc2o1 [Compound 169, 6-chloro-3-[furo[3,2-b]pyridin-2-yl(hydroxy)methylene]-5-[4-[1-(hydroxymethyl)cyclopropyl]phenyl]indolin-2-one] |
| 58 nM | 186% | CN1CCN(c2cccc(C(O)=C3C(=O)Nc4cc(Cl)c(-c5ccc(N6CCOCC6)cc5)cc43)c2)CC1 [Compound 93, 6-chloro-3-[hydroxy-[3-(4-methylpiperazin-1-yl)phenyl]methylene]-5-(4-morpholinophenyl)indolin-2-one hydrochloride] |
| 1 nM | 185% | O=C1Nc2cc(Cl)c(-c3ccc(C4CC(O)C4)cc3)cc2C1=C(O)c1cc(C2CC2)no1 (stereo not shown) [Compound 174, 6-chloro-3-[(3-cyclopropylisoxazol-5-yl)hydroxy-methylene]-5-[4-(3-hydroxycyclobutyl)phenyl]indolin-2-one] |
| 9 nM | 223% | COc1cc(C(O)=C2C(=O)Nc3cc(Cl)c(-c4ccc(OC5CCC(O)CC5)cc4)cc32)on1 (stereo not shown) [Compound 152, 6-chloro-5-[4-(4-hydroxycyclohexoxy)phenyl]-3-[hydroxy-(3-methoxyisoxazol-5-yl)methylene]indolin-2-one] |
